In test [1] the test system is fertilized eggs of aged mice. Put plainly: In vitro culture of aged mouse embryo, blastocyst reaching rate. It counts as cell-based. Particulars: fertilized eggs of 42-week-old aged mice, different concentrations, cultured 4 days, control group vs drug treated group (FIG. 2). The method, then: (§1) Ovulated mature eggs were collected from 42-week-old aged mice and subjected to in vitro fertilization, the obtained fertilized egg (zygote) was in vitro cultured using a culture medium to which a neutralizing antibody of a candidate factor or an antagonist of a specific receptor was added, and the blastocyst reaching rate was determined in order to verify embryo development ability. The obtained blastocysts were embryo transplanted into pseudopregnant mice, for which the implantation rate and the offspring acquisition rate were examined, and the quality of embryos was further evaluated. Specifically, the experiment was carried out as follows.
ICR female mice (CLEA Japan, Inc., Tokyo, Japan) were used as laboratory animals. The mice were bred at a room temperature of 22° C. and a humidity of 55% under light and dark environments every 12 hours. MF control diet (Oriental Yeast Co., ltd., Tokyo, Japan) was given 6 g per mouse per day. Water was allowed to be freely ingested at any time. […]
Mice past 3 weeks and 42 weeks of age confirmed the sexual cycle by vaginal smear. […] After culturing, the sperm was removed from the egg in 30 μl KSOM Medium (Merck Millipore, Darmstadt, Germany), and the number of 2 cell stage embryos was calculated at that time. […] The blastocyst reaching rate was calculated as the number of blastocysts/the number of two cell stage embryos.

In test [2] the test system is blastocysts of aged mice transplanted into pseudopregnant mice. In words: Embryo transplantation of aged mouse blastocysts into pseudopregnant mice, implantation rate and offspring acquisition rate. The note with it: only antagonist 10 nM added (FIG. 4). It counts as in vivo. The method, then: as §1
After culturing for 4 days, an embryo reaching a blastocyst stage embryo was transplanted. Recipient mice were ICR female mice of 6 to 10 weeks of age, and mated with ICR male mice vasoligated on the day before a harvesting day, and an individual whose vaginal plug could be confirmed the next day was used. General anesthesia was given with somnopentyl anesthetic, and the uterus was exposed by a back dorsal incision. […] Implantation rate was calculated as the number of implantation traces/the number of embryo transplantations, and the offspring acquisition rate was calculated as the litter size/the number of implantation traces.

For test [3], the system named is aging markers (p16, p21, p53, PAI-1, IL-6) in young mouse embryos. Put plainly: Expression levels of aging markers in embryos by Realtime RT-PCR. The test is classed as cell-based. Particulars: embryos to which CXCL5 was added (n=30). The method, then:
In the in vitro culture system of young mouse embryo, whether or not there was a change in blastocyst reaching rate, implantation rate, offspring acquisition rate by adding the candidate factor was examined using a similar method to Example 2. Expression in the embryos of aging markers p16, p21, p53, PAI-1, and IL-6 was measured, and whether or not cell aging was induced was investigated. Specifically, the experiment was carried out as follows.
Expression levels of aging markers (p16, p21, p53, PAI-1, IL-6) in embryos to which CXCL5 was added (n=30) were measured using Realtime RT-PCR.

Test [4] deals with blastocysts of young mice transplanted into pseudopregnant mice. In words: Embryo transplantation of young mouse blastocysts obtained with added CXCL5 into pseudopregnant mice. It counts as in vivo. From the text:
After culturing for 4 days, an embryo reaching a blastocyst stage embryo was transplanted. Recipient mice were ICR female mice of 6 to 10 weeks of age, and mated with ICR male mice vasoligated on the day before a harvesting day, and an individual whose vaginal plug could be confirmed the next day was used. General anesthesia was given with somnopentyl anesthetic, and the uterus was exposed by a back dorsal incision. The uterus was fixed with tweezers, a 30 G injection needle (Dentronics, Tokyo, Japan) was drilled at an oviduct joint, a glass capillary with blastocyst aspirated was inserted, and the embryo was transplanted into the uterus. After transplantation, the uterus was carefully returned to the body, and the retroperitoneum and the skin were sutured. At the time of transplantation, blastocysts obtained from mice of each group were transplanted into recipient mice for each individual. Cesarean section was carried out on the 19th day with the next day of egg collection as the first day. Recipient mice were euthanized and underwent laparotomy, and the uterus was extracted and the fetus was removed. Implantation rate was calculated as the number of implantation traces/the number of embryo transplantations, and the offspring acquisition rate was calculated as the litter size/the number of implantation traces.
Based on the method described in Example 2, blastocysts of the control group and the drug treated group were transplanted into pseudopregnant mice. The implantation rate and the offspring acquisition rate were then calculated.

The subject of test [5] is fertilized eggs of young mice. Put plainly: In vitro culture of young mouse embryo with added CXCL5, blastocyst reaching rate. The note with it: vs non-added control group (FIG. 5). It counts as cell-based. The method, then:
Mice past 3 weeks and 42 weeks of age confirmed the sexual cycle by vaginal smear. 10 IU of gonadotropin (ASKA Pharmaceutical. Co., Tokyo, Japan) was intraperitoneally administered at the time of proestrus. Cumulus oocyte complexes (COCs) were collected from a fallopian tube 15 hours after administration, and precultured for 30 minutes in 100 μl TYH medium (LSI Medience corporation, Tokyo, Japan). Meanwhile, ICR male mice (10-12 weeks old) were subjected to general anesthesia with somnopentyl anesthetic (Kyoritsuseiyaku Corporation, Tokyo, Japan), and cauda epididymis was extracted. A portion of the cauda epididymis was incised, and the internal sperm was extruded and collected. […] After culturing, the sperm was removed from the egg in 30 μl KSOM Medium (Merck Millipore, Darmstadt, Germany), and the number of 2 cell stage embryos was calculated at that time. […] The blastocyst reaching rate was calculated as the number of blastocysts/the number of two cell stage embryos.
In the in vitro culture system of young mouse embryo, whether or not there was a change in blastocyst reaching rate, implantation rate, offspring acquisition rate by adding the candidate factor was examined using a similar method to Example 2. Expression in the embryos of aging markers p16, p21, p53, PAI-1, and IL-6 was measured, and whether or not cell aging was induced was investigated. […]

The mark [6] stands for this setting: T-test *P<0.05 vs control (FIG. 7).
The mark [7] stands for this setting: heat-denatured CXCL5 1,000 nM vs control group.

As to `O=C(Nc1ccc([N+](=O)[O-])cc1O)Nc1ccccc1Br` [antagonist, SB225002], the blastocyst reaching rate result in test [1] was “no significant difference”. In addition, in test [2], the implantation rate result is listed as “tended to be higher” and the offspring acquisition rate result is recorded as “tended to be higher”.
On to “CXCL5: CXCL5 (ab9803, abcam), a chemokine, added to young mouse embryo culture”, for which, in test [3] (setting [6]), the “expression level of IL-6” value is given as “significant increase”, the “expression level of PAI-1” value was “significant increase”, the “expression level of p21” value is “significant increase” and the “expression level of p53” value was “significant increase”. For the same molecule, in test [3] (vs control), the “expression level of p16” value is “no significant difference”. Besides, the offspring acquisition rate result in test [4] (CXCL5-added group vs control group (FIG. 6)) is “no significant difference”. In test [4] (CXCL5-added group vs control, *P<0.05 (FIG. 6)), the implantation rate entry was “decreased”. For the same molecule, the implantation rate result in test [4] (CXCL5 added at 1,000 nM vs non-addition control group (FIG. 6)) is given as “a significant difference was observed”. In addition, the blastocyst reaching rate result in test [5] (CXCL5 100 nM, 300 nM, 1,000 nM, cultured 4 days) is “not significantly different”.
Consider “heat-denatured CXCL5: CXCL5 (ab9803, abcam) heat-denatured (95° C., 5 min), used at 1,000 nM”, for which, in test [4] (setting [7]), the implantation rate entry is on record as “no significant difference” and the offspring acquisition rate result is on record as “no significant difference”. The blastocyst reaching rate result in test [5] (heat-denatured (95° C., 5 min) CXCL5 1,000 nM) is listed as “not significantly different”.

The values are drawn from US11787855B2, “Egg, fertilized egg, or embryo quality improving agent” (MPO, INC., priority 2016, dated 2023).
